Entries after “also recorded” stand apart in the source; their conditions may differ.

One experiment addresses BChE (Homo sapiens, UniProt P06276). The settings on record: mean ± SEM, triplicate.
Another experiment addresses T1, LOX (Glycine max, UniProt P08170).
T1 sequence (P08170 1-839): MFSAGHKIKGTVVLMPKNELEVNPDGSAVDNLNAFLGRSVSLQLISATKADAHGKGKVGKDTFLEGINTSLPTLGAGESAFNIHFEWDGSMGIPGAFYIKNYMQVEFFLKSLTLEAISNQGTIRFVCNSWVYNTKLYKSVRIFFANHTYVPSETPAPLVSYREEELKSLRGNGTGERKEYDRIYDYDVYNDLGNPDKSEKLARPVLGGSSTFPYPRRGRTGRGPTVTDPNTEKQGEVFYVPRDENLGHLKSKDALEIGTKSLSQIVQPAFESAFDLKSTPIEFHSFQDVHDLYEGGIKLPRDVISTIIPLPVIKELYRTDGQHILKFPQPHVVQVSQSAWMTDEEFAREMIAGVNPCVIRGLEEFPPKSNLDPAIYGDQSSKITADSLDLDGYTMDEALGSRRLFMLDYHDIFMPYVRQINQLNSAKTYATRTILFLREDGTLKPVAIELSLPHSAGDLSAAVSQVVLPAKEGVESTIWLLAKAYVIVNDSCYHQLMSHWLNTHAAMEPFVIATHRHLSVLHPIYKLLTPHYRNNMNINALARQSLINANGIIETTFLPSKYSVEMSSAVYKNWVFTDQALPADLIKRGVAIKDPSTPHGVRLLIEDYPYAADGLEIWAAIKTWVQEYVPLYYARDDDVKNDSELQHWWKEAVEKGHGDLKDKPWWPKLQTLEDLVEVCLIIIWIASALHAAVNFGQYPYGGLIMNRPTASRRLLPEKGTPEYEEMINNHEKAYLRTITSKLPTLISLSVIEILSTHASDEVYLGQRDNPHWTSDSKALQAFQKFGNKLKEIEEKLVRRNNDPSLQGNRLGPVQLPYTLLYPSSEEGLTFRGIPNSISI
The experiment in a line: Lipoxygenase assay. The experiment is classed as biochemical. The settings on record: mean ± SEM, triplicate.

Another experiment has as its target urease (Canavalia ensiformis, UniProt P07374). The settings on record: mean ± SEM, triplicate; for IC50: read-out: urease inhibition, IC50.
The target in a further experiment is α-glucosidase (Saccharomyces cerevisiae, UniProt P53341). The experiment in a line: α-Glucosidase assay. The experiment is classed as biochemical. To be noted: for α-glucosidase inhibition, inhibition (%) at 0.5 mM / IC50: mean ± SEM, triplicate; for IC50: read-out: α-glucosidase inhibition, IC50.
Another experiment addresses AChE (Homo sapiens, UniProt P22303). The settings on record: for AChE inhibition, inhibition (%) at 0.5 mM / IC50: mean ± SEM, triplicate; for IC50: read-out: AChE inhibition, IC50.

Sequence of AChE (P22303 32-614): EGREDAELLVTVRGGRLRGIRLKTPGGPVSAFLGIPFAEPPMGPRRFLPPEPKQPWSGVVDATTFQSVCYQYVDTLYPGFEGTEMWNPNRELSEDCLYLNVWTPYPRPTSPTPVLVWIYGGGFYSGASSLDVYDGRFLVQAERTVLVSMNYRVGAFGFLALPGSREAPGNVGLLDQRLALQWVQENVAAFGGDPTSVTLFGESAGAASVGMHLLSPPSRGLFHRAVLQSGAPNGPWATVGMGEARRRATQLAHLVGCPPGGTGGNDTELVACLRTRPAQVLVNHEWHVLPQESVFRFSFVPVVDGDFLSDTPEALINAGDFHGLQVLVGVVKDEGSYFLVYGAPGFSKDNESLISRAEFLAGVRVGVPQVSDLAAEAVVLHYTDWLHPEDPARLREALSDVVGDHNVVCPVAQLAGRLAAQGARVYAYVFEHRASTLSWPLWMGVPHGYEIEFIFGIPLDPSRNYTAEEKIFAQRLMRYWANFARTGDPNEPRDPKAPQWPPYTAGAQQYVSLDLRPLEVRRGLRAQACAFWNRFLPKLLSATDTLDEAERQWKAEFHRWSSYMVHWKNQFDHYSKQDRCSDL
Sequence of BChE (P06276 29-602, species assumed): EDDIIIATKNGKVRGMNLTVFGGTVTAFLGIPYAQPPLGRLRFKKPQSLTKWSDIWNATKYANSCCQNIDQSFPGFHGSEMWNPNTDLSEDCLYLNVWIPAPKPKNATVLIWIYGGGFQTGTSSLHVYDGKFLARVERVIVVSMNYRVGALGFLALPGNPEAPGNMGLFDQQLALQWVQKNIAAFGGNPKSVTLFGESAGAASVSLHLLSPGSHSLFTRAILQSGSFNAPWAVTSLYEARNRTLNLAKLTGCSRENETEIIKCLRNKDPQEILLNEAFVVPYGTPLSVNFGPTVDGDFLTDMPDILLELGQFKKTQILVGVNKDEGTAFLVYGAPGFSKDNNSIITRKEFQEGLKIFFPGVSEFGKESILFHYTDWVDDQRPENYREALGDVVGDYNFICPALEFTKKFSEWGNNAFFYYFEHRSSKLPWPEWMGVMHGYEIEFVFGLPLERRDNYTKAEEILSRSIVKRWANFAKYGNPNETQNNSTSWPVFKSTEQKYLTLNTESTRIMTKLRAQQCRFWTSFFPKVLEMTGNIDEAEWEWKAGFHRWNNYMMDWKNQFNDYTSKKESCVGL
Sequence of α-glucosidase (P53341 whole entry): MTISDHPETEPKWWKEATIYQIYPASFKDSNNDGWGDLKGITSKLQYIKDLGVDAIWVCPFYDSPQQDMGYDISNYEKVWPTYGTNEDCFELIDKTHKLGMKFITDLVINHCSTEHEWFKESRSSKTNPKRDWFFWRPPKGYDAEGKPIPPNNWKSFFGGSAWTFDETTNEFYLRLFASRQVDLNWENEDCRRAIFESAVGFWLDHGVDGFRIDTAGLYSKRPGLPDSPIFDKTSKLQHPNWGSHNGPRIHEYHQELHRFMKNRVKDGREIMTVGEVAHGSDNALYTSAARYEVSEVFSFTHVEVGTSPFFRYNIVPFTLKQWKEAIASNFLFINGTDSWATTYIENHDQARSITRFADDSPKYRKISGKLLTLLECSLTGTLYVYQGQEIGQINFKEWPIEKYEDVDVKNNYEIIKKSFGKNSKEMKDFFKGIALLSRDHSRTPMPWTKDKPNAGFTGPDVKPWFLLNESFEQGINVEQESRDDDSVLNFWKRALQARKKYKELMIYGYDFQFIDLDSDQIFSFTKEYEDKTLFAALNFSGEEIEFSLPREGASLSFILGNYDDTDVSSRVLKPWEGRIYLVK
Sequence of urease (P07374 whole entry, looked up): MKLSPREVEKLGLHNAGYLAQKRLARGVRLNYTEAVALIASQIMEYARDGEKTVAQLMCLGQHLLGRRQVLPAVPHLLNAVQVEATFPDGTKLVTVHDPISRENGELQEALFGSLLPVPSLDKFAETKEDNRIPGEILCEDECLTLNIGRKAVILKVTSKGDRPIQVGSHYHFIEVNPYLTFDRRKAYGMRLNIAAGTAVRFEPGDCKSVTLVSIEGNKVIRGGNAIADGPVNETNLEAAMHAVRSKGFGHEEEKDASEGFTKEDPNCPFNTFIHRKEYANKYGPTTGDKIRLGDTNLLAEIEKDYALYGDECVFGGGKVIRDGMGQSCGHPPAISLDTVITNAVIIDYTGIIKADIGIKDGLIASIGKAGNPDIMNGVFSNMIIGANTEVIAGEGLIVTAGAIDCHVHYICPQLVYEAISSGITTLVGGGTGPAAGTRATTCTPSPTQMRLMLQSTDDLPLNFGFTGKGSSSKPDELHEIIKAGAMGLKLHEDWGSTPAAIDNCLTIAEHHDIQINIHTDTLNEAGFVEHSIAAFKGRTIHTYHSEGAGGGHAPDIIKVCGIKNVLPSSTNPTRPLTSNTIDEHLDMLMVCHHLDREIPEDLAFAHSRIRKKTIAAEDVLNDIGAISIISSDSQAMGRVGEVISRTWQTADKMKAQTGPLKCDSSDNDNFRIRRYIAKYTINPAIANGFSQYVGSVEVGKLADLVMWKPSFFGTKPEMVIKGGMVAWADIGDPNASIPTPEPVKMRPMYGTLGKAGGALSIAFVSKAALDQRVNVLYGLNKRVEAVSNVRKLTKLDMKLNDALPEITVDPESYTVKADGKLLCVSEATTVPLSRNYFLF

Regarding `Cc1ccc(S(=O)(=O)N2CCC(c3nnc(SCC(=O)Nc4c(C)cccc4C)n3C)CC2)cc1` [Compound 12l, 1-(4-toluenesulfonyl)-4-{3-[N-(2,6-dimethylphenyl)-2-ethanamoylthio]-4-methyl-4H-1,2,4-triazol-5-yl} piperidine], the “BChE inhibition, inhibition (%) at 0.5 mM” value at BChE worked out at 41.87 ± 0.63%. In addition, at LOX, the “LOX inhibition, inhibition (%) at 0.25 mM” value is 45.29 ± 0.56%. Also, the “urease inhibition, inhibition (%) at 0.25 mM” value on urease came out at 46.19 ± 1.76%. At α-glucosidase, the “α-glucosidase inhibition, inhibition (%) at 0.5 mM” value is 53.67 ± 1.67% and the IC50 amounted to 463.3 ± 1.36 µM. At AChE, the “AChE inhibition, inhibition (%) at 0.5 mM” value was determined as 62.25 ± 0.86% and the IC50 was determined as 287.7 ± 0.63 µM.
As to `Cc1ccc(S(=O)(=O)N2CCC(c3nnc(SCC(=O)Nc4cc(C)cc(C)c4)n3C)CC2)cc1` [Compound 12m, 1-(4-toluenesulfonyl)-4-{3-[N-(3,5-dimethylphenyl)-2-ethanamoylthio]-4-methyl-4H-1,2,4-triazol-5-yl} piperidine], the “BChE inhibition, inhibition (%) at 0.5 mM” value on BChE amounted to 91.25 ± 0.45%. For the same molecule, the IC50 at BChE (read-out: BChE inhibition, IC50) was determined as 0.038 µM. Further, the “LOX inhibition, inhibition (%) at 0.25 mM” value on LOX amounted to 37.45 ± 0.37%. At urease, the “urease inhibition, inhibition (%) at 0.25 mM” value came out at 98.65 ± 1.67% and the 50% inhibitory concentration (IC50) is 14.3 ± 1.27 µM. For the same molecule, on α-glucosidase, the “α-glucosidase inhibition, inhibition (%) at 0.5 mM” value stood at 87.21 ± 1.46% and the IC50 is 142.7 ± 1.23 µM. Also, on AChE, the “activity against AChE enzyme (in words)” value is “excellent activity”; the “AChE inhibition, inhibition (%) at 0.5 mM” value is recorded as 92.73 ± 0.87%; the IC50 amounted to 0.42 ± 0.67 µM.
Consider `CCc1cccc(C)c1NC(=O)CSc1nnc(C2CCN(S(=O)(=O)c3ccc(C)cc3)CC2)n1C` [Compound 12n, 1-(4-toluenesulfonyl)-4-{3-[N-(2-ethyl-6-methylphenyl)-2-ethanamoylthio]-4-methyl-4H-1,2,4-triazol-5-yl} piperidine], for which the “BChE inhibition, inhibition (%) at 0.5 mM” value at BChE was 36.24 ± 0.59%. Also, the “LOX inhibition, inhibition (%) at 0.25 mM” value at LOX worked out at 35.65 ± 0.49%. In addition, the “urease inhibition, inhibition (%) at 0.25 mM” value at urease is recorded as 32.85 ± 1.39%. Also, on α-glucosidase, the “activity against α-glucosidase enzyme (in words)” value is “excellent activity; also recorded: most active compound”; the “α-glucosidase inhibition, inhibition (%) at 0.5 mM” value was determined as 92.65 ± 1.64%; the IC50 is 29.4 ± 1.32 µM. Moreover, at AChE, the “AChE inhibition, inhibition (%) at 0.5 mM” value came out at 61.53 ± 0.65% and the IC50 came to 328.1 ± 0.45 µM.
In the case of `Cc1ccc(S(=O)(=O)N2CCC(c3nnc(SCC(=O)Nc4c(C)cccc4[N+](=O)[O-])n3C)CC2)cc1` [Compound 12o, 1-(4-toluenesulfonyl)-4-{3-[N-(2-methyl-6-nitrophenyl)-2-ethanamoylthio]-4-methyl-4H-1,2,4-triazol-5-yl} piperidine], the “BChE inhibition, inhibition (%) at 0.5 mM” value on BChE came out at 39.65 ± 0.42%. The “LOX inhibition, inhibition (%) at 0.25 mM” value on LOX is 64.28 ± 0.73%. Also, at LOX (read-out: LOX inhibition, IC50), the IC50 turned out to be 93.81 ± 0.34 µM. Also, on urease, the “urease inhibition, inhibition (%) at 0.25 mM” value came to 56.35 ± 1.67% and the IC50 worked out at 241.8 ± 0.42 µM. Also, on α-glucosidase, the “α-glucosidase inhibition, inhibition (%) at 0.5 mM” value stood at 72.23 ± 1.51% and the IC50 was found to be 285.6 ± 1.23 µM. Further, at AChE, the “AChE inhibition, inhibition (%) at 0.5 mM” value was 81.53 ± 0.96% and the IC50 is 129.6 ± 0.73 µM.

By IC50 is commonly meant the concentration that inhibits the measured activity by half.

The record behind these values is paper PMC9476189 (ACS Omega, 2022).
